Data: publication PMC5487684, “Safety, Pharmacokinetics, and Antiviral Activity of a Novel HIV Antiviral, ABX464, in Treatment-Naive HIV-Infected Subjects in a Phase 2 Randomized, Controlled Study” (Antimicrobial Agents and Chemotherapy, 2017)
Read-outs that look alike come from different tables or passages of the source.

Experiment: Plasma pharmacokinetics of ABX464 and ABX464-NGlc in HIV-infected subjects
Assay type: in vivo, human
Conditions: for AUC(0-inf) / Cmax / half-life / Tmax: human, plasma, po
Protocol: Plasma samples were analyzed for ABX464 and ABX464-NGlc using validated bioanalytical methods by Atlanbio (Saint Nazaire, France) according to good laboratory practices. Pharmacokinetic parameters were calculated by noncompartmental analysis (NCA), using Phoenix WinNonlin software (Pharsight Corporation) running on a personal computer. On day 1, the following PK parameters were generated: Cmax, the time to Cmax (Tmax), lag time (tlag), elimination rate constant (kel), area under the concentration-time curve (AUC) from time zero to time t (AUC0–t), AUC from time zero to infinity (AUC0–∞), apparent clearance (CL/F), and apparent volume of distribution (V/F). On the other days of PK assessment, only Cmax, Tmax, tlag, kel, and AUC0–t were generated. The secondary analysis concerned pharmacodynamic (PD) activity, as expressed by CD4 and CD8 levels and viral load across time. The HIV viral load was analyzed in the prequalified individual local study center laboratories. CD4 and CD8 cell counts were also determined in the local study center laboratories. With respect to the viral load, changes in the log-transformed viral load values between 24 h postdose and predose were calculated on each day, and a comparison between each dose level and pooled placebo data was made. Moreover, the rate of success (defined as a decrease in the viral load value of at least 0.5 log) was evaluated for each treatment (including placebo) and compared between treatments.

FC(F)(F)Oc1ccc(Nc2ccc3cccc(Cl)c3n2)cc1 [ABX464]
Concomitant food effect on relative bioavailability (fed vs fasted): substantial increase in the relative bioavailability | AUC(0-inf) (50 mg, HIV-infected, single oral 50mg (fasted), N 7, read-out: AUC0-∞, GM): 42.8 ng·h/mL | AUC(0-inf) (50 mg, HIV-infected, single oral 50mg (fasted), N 7, read-out: AUC0-∞, Mean): 55.4 ng·h/mL | Cmax (50 mg, HIV-infected, single oral 50mg (fasted), N 7, read-out: Cmax, GM): 14.9 ng/mL | Cmax (50 mg, HIV-infected, single oral 50mg (fasted), N 7, read-out: Cmax, Mean): 19.4 ng/mL | half-life (50 mg, HIV-infected, single oral 50mg (fasted), N 7, read-out: t1/2, GM (converted)): 0.94 h | half-life (50 mg, HIV-infected, single oral 50mg (fasted), N 7, read-out: t1/2, Mean (converted)): 0.96 h | Tmax (50 mg, HIV-infected, single oral 50mg (fasted), N 7, read-out: tmax, GM): 1.8 h | Tmax (50 mg, HIV-infected, single oral 50mg (fasted), N 7, read-out: tmax, Mean): 1.9 h | half-life (HIV-infected subjects, oral, read-out: half-life (t1/2) (converted)): ~1 h
